Assay results from US10208074B2, “Pyrazole compounds and method for making and using the compounds” (Rigel Pharmaceuticals, Inc., priority 2015, dated 2019).
Counter-ions that a name gives are not always drawn. Like-named read-outs stand apart in the source and are kept apart here.

Tested on: IL-23p19
Experiment: LPS induced IL23p19 in THP-1 cells (with IFNγ primed) assay
Assay type: cell-based, Human
Conditions: Homo sapiens, THP-1, 18 h
Source text: LPS Induced IL23p19 in THP-1 Cells (with IFNγ Primed) Assay
THP-1 Cells (ATCC, Cat#TIB-202), Dimethyl Sulfoxide (DMSO) (Sigma-Aldrich, Cat#D2650), RPMI 1640 (Cellgro, Cat#10-040-CM), Fetal Bovine Serum (Sigma, Cat#F4135), Albumin From Bovine Serum (BSA) (Sigma-Aldrich, Cat#A7906), LPS (Serotype K-235, Sigma, Product Number L 2143), IFNγ (Peprotech, Cat#300-02) Capture antibody: Human IL-23p19 ELISA (e-Bioscience, Cat. #14-7238-85), Detection antibody: Primary Mouse Biotinylated anti-human IL-12(p40/p70) (e-Bioscience, Cat. #13-7129-85), Secondary HRP-conjugated Streptavidin (R&D Systems, Cat#DY998), 1×PBST Washing Buffer (PBS-Tween tablet) (VWR International, Cat#80058-558), ELISA Blocking Buffer (PBS with 1% BSA), ELISA Dilution Buffer (PBS with 1% BSA), 384 Well Flat-Bottom, MaxiSorp Black Immuno Plates (Thermo Scientific, Cat#12-565-346), 384 Well Flat-Bottom, White Tissue Culture Plates (Thermo Scientific, Cat#12-565-343), Super Signal ELISA Pico Chemiluminescent Substrate (Thermo Scientific, Cat#37070), Cell Titer Glo reagent (Promega, Cat#G7573), Positive control, IKK2VI inhibitor (Calbiochem, Cat#401483), AquaMax 4000 plate washer (Molecular Devices), Luminometer, Wallac Victor2 1420 Multilabel Counter.
On day 1, 50K/well THP-1 cells were seeded and primed with IFNγ (50 ng/mL) in 384-well plates for about 18 hours in RPMI media with 10% FBS. On day 2, the compound was serially diluted in DMSO from 5 mM in 3-fold dilutions, and then diluted 1:125 in RPMI media with 10% FBS. 50 μL/well 2× compound was added to 50 μL/well THP-1 cells (with IFNγ primed) in duplicate in 384 well tissue culture plates. The cells were pre-incubated with compound for 1 hour at 37° C., 5% CO2 before addition of 10 μL/well 11×LPS to give a final concentration of 1 ug/mL LPS. Day 3, after stimulation for 18 hours at 37° C., 5% CO2, the assay plate was centrifuged and 70 μL/well supernatant was harvested. IL-23p19 protein in 70 μL/well of supernatant was measured by sandwich ELISA, and 25 μl/well Cell Titer Glo reagent was added to the remaining cells to measure compound toxicity.
Maxisorp immuno ELISA plates were pre-coated with 25 μL/well of anti-IL-23p19 capture antibody (2.5 ug/mL) in PBS overnight at room temperature. After washing with 1× PBST, the plates were blocked using 100 μL/well of 1% BSA in PBS for 2 hours at room temperature. The plates were washed three times with 1×PBST and 70 μL/well supernatant were added. The plates were incubated at room temperature for 2 hours with shaking and washed three times with 1×PBST. 25 μL/well of biotin labeled anti-IL-12(p40/p70) detection antibody (100 ng/mL) in PBS with 1% BSA was added and the plates were incubated at room temperature for 2 hours with shaking. After washing three times with 1×PBST, 25 μL/well of streptavidin-HRP (1:200) in PBS with 1% BSA was added and the plates were incubated at room temperature for 20 minutes with shaking. The plates were washed three times with 1× PBST and 25 μL/well of Super Signal ELISA Pico Chemiluminescent Substrate were added. The plates were read with a luminometer, and the chemiluminescence values were entered into Athena (Rigel) for curve fitting, EC50 calculation, and database storage.

[1] = THP-1 cells, IFNγ primed, LPS 1 ug/mL, 18 hours, 10 pt, read-out: IL23-p19 ELISA, THP1-IFNy, LPS, 10 pt EC50

Structure (SMILES)	EC50 [1] [µM]	EC50 (read-out: IL23-p19 ELISA, THP1-IFNy, LPS, 10 pt EC50 (μM)) [µM]
CCCOCn1cc(NC(=O)c2ccc(-c3c[nH]c([N+](=O)[O-])c3)o2)c(-c2ccccn2)n1 [Compound I-24, 5-(5-nitro-1H-pyrrol-3-yl)-N-(1-(propoxymethyl)-3-(pyridin-2-yl)-1H-pyrazol-4-yl)furan-2-carboxamide]	4.22	
COCCOCCn1cc(-c2ccc(C(=O)Nc3cn(CCOCCOC)nc3-c3ccccn3)o2)cn1 [Compound I-52, 5-(1-(2-(2-methoxyethoxy)ethyl)-1H-pyrazol-4-yl)-N-(1-(2-(2-methoxyethoxy)ethyl)-3-(pyridin-2-yl)-1H-pyrazol-4-yl)furan-2-carboxamide formate]	1.38	
O=C(Nc1cn(C2CCC2)nc1-c1ccccn1)c1ccc(-c2cnn(C3CCC3)c2)o1 [Compound I-122, 5-(1-cyclobutyl-1H-pyrazol-4-yl)-N-(1-cyclobutyl-3-(pyridin-2-yl)-1H-pyrazol-4-yl)furan-2-carboxamide 2,2,2-trifluoroacetate]	3.76	
CCOP(=O)(Cn1cc(-c2nc(C(=O)Nc3cn(C)nc3-c3ccccn3)cs2)cn1)OCC [II-7, diethyl ((4-(4-((1-methyl-3-(pyridin-2-yl)-1H-pyrazol-4-yl)carbamoyl)thiazol-2-yl)-1H-pyrazol-1-yl)methyl)phosphonate]		6.09
CCO[C@H]1C[C@@H](n2cc(NC(=O)c3csc(-c4cn[nH]c4)n3)c(C(F)(F)F)n2)C1 [II-62, N-(1-((1s,3s)-3-ethoxycyclobutyl)-3-(trifluoromethyl)-1H-pyrazol-4-yl)-2-(1H-pyrazol-4-yl)thiazole-4-carboxamide]	6.48	
CCO[C@H]1C[C@@H](n2cc(NC(=O)c3csc(-c4c(C)n[nH]c4C)n3)c(-c3ccccn3)n2)C1 [II-93, 2-(3,5-dimethyl-1H-pyrazol-4-yl)-N-(1-((1,3-cis)-3-ethoxycyclobutyl)-3-(pyridin-2-yl)-1H-pyrazol-4-yl)thiazole-4-carboxamide]	0.109	
O=C(Nc1cn(C(F)F)nc1-c1ccccn1)c1csc(-c2cnn(C(F)F)c2)n1 [II-98, 2-(1-(difluoromethyl)-1H-pyrazol-4-yl)-N-(1-(difluoromethyl)-3-(pyridin-2-yl)-1H-pyrazol-4-yl)thiazole-4-carboxamide]	24.6	
Cn1cc(NC(=O)c2csc(-c3cn[nH]c3)n2)c(C#N)n1 [II-137, N-(3-cyano-1-methyl-1H-pyrazol-4-yl)-2-(1H-pyrazol-4-yl)thiazole-4-carboxamide]	0.206	

More lines, in order of falling EC50 [1], values ahead:

EC50 [1] [µM]	Structure (SMILES)	EC50 (read-out: IL23-p19 ELISA, THP1-IFNy, LPS, 10 pt EC50 (μM)) [µM]
26.2	CCO[C@H]1C[C@@H](n2cc3c(n2)CCCN3C(=O)c2csc(-c3cn[nH]c3)n2)C1 [II-67, (2-(1H-pyrazol-4-yl)thiazol-4-yl)(2-((1s,3s)-3-ethoxycyclobutyl)-2,5,6,7-tetrahydro-4H-pyrazolo[4,3-b]pyridin-4-yl)methanone]	
24.1	COc1ccc(Cn2cc(-c3nc(C(=O)Nc4c[nH]nc4-c4ccccn4)cs3)cn2)cc1 [II-53, 2-(1-(4-methoxybenzyl)-1H-pyrazol-4-yl)-N-(3-(pyridin-2-yl)-1H-pyrazol-4-yl)thiazole-4-carboxamide]	
20.3	Cn1cc(NC(=O)c2coc(-c3cnn(CC4CC4)c3)n2)c(-c2ccccn2)n1 [III-1, 2-(1-(cyclopropylmethyl)-1H-pyrazol-4-yl)-N-(1-methyl-3-(pyridin-2-yl)-1H-pyrazol-4-yl)oxazole-4-carboxamide]	
8.08	COc1ccc(Cn2cc(-c3nc(C(=O)Nc4cn(CC(O)C(F)(F)F)nc4-c4ccccn4)cs3)cn2)cc1 (stereo not shown) [II-103, 2-(1-(4-methoxybenzyl)-1H-pyrazol-4-yl)-N-(3-(pyridin-2-yl)-1-(3,3,3-trifluoro-2-hydroxypropyl)-1H-pyrazol-4-yl)thiazole-4-carboxamide]	
6.16	COc1ccc(Cn2cc(-c3nc(C(=O)Nc4cn(CCF)nc4-c4ccccn4)cs3)cn2)cc1 [II-52, N-(1-(2-fluoroethyl)-3-(pyridin-2-yl)-1H-pyrazol-4-yl)-2-(1-(4-methoxybenzyl)-1H-pyrazol-4-yl)thiazole-4-carboxamide]	
5.55	COc1ccc(Cn2cc(-c3nc(C(=O)Nc4cn(C(=O)N(C)C)nc4-c4ccccn4)cs3)cn2)cc1 [II-105, N-(1-(dimethylcarbamoyl)-3-(pyridin-2-yl)-1H-pyrazol-4-yl)-2-(1-(4-methoxybenzyl)-1H-pyrazol-4-yl)thiazole-4-carboxamide]	
0.615	CC1(O)CC(n2cc(NC(=O)c3csc(-c4cn[nH]c4)n3)c(-c3ccccn3)n2)C1 (stereo not shown) [II-87, N-(1-(3-hydroxy-3-methylcyclobutyl)-3-(pyridin-2-yl)-1H-pyrazol-4-yl)-2-(1H-pyrazol-4-yl)thiazole-4-carboxamide]	
0.377	O=C(Nc1cn(C(=O)N2CCOCC2)nc1-c1ccccn1)c1csc(-c2cn[nH]c2)n1 [II-129, N-(1-(morpholine-4-carbonyl)-3-(pyridin-2-yl)-1H-pyrazol-4-yl)-2-(1H-pyrazol-4-yl)thiazole-4-carboxamide]	
